Assays:
LPC lesion mouse model = assay: LPC-induced focal demyelination of the spinal cord and drug treatment; assay type: in vivo; settings: for MBP staining in the lesions: 8 and 12 d.p.l.; for number of newly generated CC1+ oligodendrocytes in the lesion core: 8 d.p.l., miconazole 10 or 40 mg per kg, clobetasol 2 mg per kg, vs vehicle; for extent of remyelination (electron micrographs, toluidine blue): lesions of treated mice
Description: Focal demyelination in the spinal cord was induced by the injection of 1% LPC solution. Ten- to 12-week-old C57BL/6 female mice were anaesthetized using isoflurane and a T10 laminectomy was performed. One microlitre of 1% LPC was infused into the dorsal column at a rate of […]. The animals were euthanized either at day 8 or day 12 after the laminectomy (n=6-9 per group). Animals that were euthanized at day 8 received vehicle or drug daily by intraperitoneal injection between days 3 and 7. Animals used in the day 12 experiments received vehicle or drug daily by intraperitoneal injection between days 4 and 11. Drugs were dissolved in DMSO and then diluted with sterile saline for injection. Mice were deeply anaesthetized using ketamine/xylazine rodent cocktail and then euthanized by transcardial perfusion with 4% PFA for histological analysis or 4% PFA, 2% gluteraldehyde, and 0.1M sodium cacodylate for electron microscopy. PFA fixed tissue was equilibrated in 30% sucrose, embedded in OCT, and cryosectioned at 20 μm thickness and processed for CC1 and MBP immunohistochemistry. ImageJ was used to measure area of the lesion and CC1^+ cells within the lesion were scored manually. For CC1 scoring, sections were taken from the centre of each lesion to control for lesion variability.
Samples were processed as previously described.

OPCs = assay: HCA of astrocyte induction (GFAP); assay type: cell-based, mouse; settings: 72 h, in vitro
Description: For the astrocyte experiments in FIG. 3C, the experimental setup was identical to the PLP1-based primary validation screen except plates were stained for GFAP (DAKO, Z0334; 1:5,000). BMP4 (R&D Systems; 50 ng ml^−1) and LIF (Millipore; 10^3 U ml^−1) were used as the positive control for astrocyte induction. Assay plates were imaged on the Operetta High Content Imaging and Analysis system and a set of 14×20 fields captured. Columbus Data Management and Analysis System software (PerkinElmer) was used to quantify the percentage of GFAP1 astrocytes in each well using a method similar to that developed for oligodendrocytes.

[1] = tested on: 414 different kinase isoforms; assay: Kinase profiling (LanthaScreen, Z'-LYTE, Adapta); assay type: biochemical; settings: 414 kinase isoforms
Description: LanthaScreen, Z9-LYTE, and Adapta kinase assays were performed by Select Screen (Life Technologies). LanthaScreen Eu kinase assays were performed in Greiner low-volume 384-well plates. Assay buffer consisted of 50 mM HEPES pH 7.5, 0.01% BRIJ-35, 10 mM MgCl2, 1 mM EGTA. Each well consisted of this mixture: 4.0 μl of 4 μM test drug in assay buffer, 8 μl of 2× kinase/Eu antibody mixture, and 4 μl of 4×Alexa Fluor 647 tracer. Plates were incubated for 60 min at room temperature (˜22° C.), then Alexa Fluor 647 emission (665 nm) and Europium emission (615 nm) read on a fluorescent plate reader. Data were analysed by generating the emission ratio (665 nm/615 nm) for each test point and normalizing 0% to control wells with no known inhibitor and 100% to control wells with highest concentration of known inhibitor.
Z′-LYTE assays were performed in Corning, low volume 384-well plates. Assay buffer consisted of 50 mM HEPES pH 7.5, 0.01% BRIJ-35, 10 mM MgCl2, 1 mM EGTA. […] Coumarin emission (445 nm) and fluorescein emission (520 nm) were read on a fluorescent plate reader. Data were analysed by normalizing out background fluorescence then generating the emission ratio (445 nm/520 nm) for each test point. […]
Adapta assays were performed in Corning, low volume 384-well plates. […] Alexa Fluor 647 emission (665 nm) and europium emission (615 nm) were read on a fluorescent plate reader. […]

glucocorticoid receptor = assay: Western blot of glucocorticoid receptor phosphorylation at Ser220 in OPCs; assay type: cell-based, mouse; settings: OPCs treated for 1 h
Description: EpiSC-derived OPCs were seeded into poly-Lornithine/laminin coated six-well plates and allowed to attach for 2 h in DMEM/F12 without additional factors. Cells were treated with indicated inhibitors or DMSO for 1 h-SCH772984 (ChemieTek, 1 mM), SB590885 (Tocris, 10 nM), LY294002 (Tocris, 10 μM), and PD0325901 (Stemgent, 1 μM). Cells were then stimulated with drug or FGF2 (R&DSystems; 20 ng ml^−1) for 1 h and then lysed in 200 μL RIPA buffer (0.15 M NaCl, 0.05M Tris, pH=8.0, 1 mM EDTA, 1% Triton X-100, 0.1% SDS, 10% glycerol, HALT protease and phosphatase inhibitor (Thermo Fisher) added just before use) and incubated on ice for 20 min. Lysates were centrifuged at 4° C. and supernatant collected. Protein concentrations were determined by Pierce BCA protein assay kit (Thermo Fisher). […] Blots were blocked in either 5% BSA (phosphoprotein) or 5% milk (non phosphoprotein).

naive CD4+ T cells = assay: Naive CD4+ T-cell assays; assay type: cell-based, mouse; settings: Th1 or Th17 driving conditions, 4 days
Description: Naive CD4+ T cells (CD4+L-selectin^hi cells) were purified using AutoMacs Magnetic Bead cell separation technology (Miltenyi Biotech) from total lymph node cells isolated from unprimed mice with purity ranging from 98 to 99.9%. For in vitro activation, 5×10^5 naive CD4^+ T cells were activated in the presence of plate-bound anti CD3 (1 μgml^−1) plus Th1—(200 U ml^−1 interleukin-2 (IL-2), 40 U ml^−1 IL-12, 10 μgml^−1 anti-IL-4) or Th17—([…], 50 ng ml^−1 IL-6, 1 μgml^−1 anti-IFN-γ, 1 μgml^−1 anti-IL-4, 1 μgml^−1 anti-IL-2) promoting conditions. On day 4, the cultured T cells were collected and the percentage of viable cytokine positive cells assessed by flow cytometry. The cells were stained with a LIVE/DEAD Fixable Violet Dead Cell Stain Kit, for 405 nm excitation (Life Technologies), anti CD4-APC/Cy7 (clone RM4-5), anti-IFN-γ-PerCP/Cy5.5 (clone XMG1.2), and anti-IL-17-APC (clone eBio17B7) (eBioscience). Viable cells (5×10^5) were analysed per individual sample using a BD Canto II cytometer (BD Biosciences), and the data were analysed using FloJo version 9.5.2 software (Tree Star).

[2] = tested on: PLP139-151- or MOG35-55-sensitized lymph node cells; assay: Ex vivo lymphocyte recall assays; assay type: cell-based, mouse
[3] = tested on: PLP139-151 EAE mouse model; assay: PLP139-151-induced relapsing remitting EAE; assay type: in vivo
Text: Six- to seven-week-old female SJL/J mice were induced with PLP139-151 as for ex vivo recall assays. Mice were allowed to progress to disease onset at day 13 before being randomized into treatment groups (n=10 mice per group). […] This period fully encompassed the acute phase of disease onset followed by remission and the primary disease relapse. Treatments were blinded to the experimenters performing the assays.

Structure (SMILES) | MBP staining in the lesions (LPC lesion mouse model) | number of newly generated CC1+ oligodendrocytes in the lesion core (LPC lesion mouse model) | myelin thickness relative to axon diameter (g ratio) (LPC lesion mouse model; 12 d.p.l., compared with intact myelin) | extent of remyelination (electron micrographs, toluidine blue) (LPC lesion mouse model) | astrocyte formation from OPCs (OPCs) | inhibition of kinase activity [1] | phosphorylation of glucocorticoid receptor at Ser220 (glucocorticoid receptor) | naive T-cell differentiation (naive CD4+ T cells) | proliferation and secretion of cytokines by sensitized lymph node cells ([2]; 10^−9-10^−5 M) | efficacy in reducing disease severity ([3]; daily i.p. day 13 to 29, clobetasol 2 mg/kg, miconazole 10 mg/kg, benztropine 10 mg/kg) | T cells within the spleen ([3]; day 29, 2 mg/kg) | modulation of immune cell function ([2]; summary of immune cell survival and function assays)
C[C@H]1C[C@H]2[C@@H]3CCC4=CC(=O)C=C[C@]4(C)[C@@]3(F)[C@@H](O)C[C@]2(C)[C@@]1(O)C(=O)CCl [clobetasol] | extensive MBP staining | significant increase in the number of newly generated CC1^+ oligodendrocytes | thinner than intact myelin | striking increase in the extent of remyelination | neither drug showed a significant impact on astrocyte formation | Neither clobetasol nor miconazole inhibited any of the kinases tested | increased the phosphorylation of glucocorticoid receptor at Ser220 | altered naïve T-cell differentiation | altered naïve T-cell differentiation and both the proliferation and secretion of cytokines | showed efficacy in reducing disease severity | severe reduction of T cells within the spleen | –
Clc1ccc(COC(Cn2ccnc2)c2ccc(Cl)cc2Cl)c(Cl)c1 (centres unmarked) [miconazole] | extensive MBP staining | significant increase in the number of newly generated CC1^+ oligodendrocytes | – | striking increase in the extent of remyelination | neither drug showed a significant impact on astrocyte formation | Neither clobetasol nor miconazole inhibited any of the kinases tested | – | – | – | – | – | did not modulate immune cell function
